“And” between values parts separate entries of the source, which are not always exact repeats. Identical values can stand only once. Like-named read-outs stand apart in the source and are kept apart here.
Columns and labels:
[1] = target: T1, recombinant human AChE (Homo sapiens, UniProt P22303); experiment: Inhibition of AChE (modified Ellman method, Hunter–Downs evaluation); format: biochemical; conditions: for fold higher AChE inhibition potency than meta position counterpart: para compounds 5 and 3 vs meta compounds 4 and 2; for times less potent as inhibitor of AChE than donepezil: compared to donepezil Ki of ref 50; for times less potent as inhibitor of AChE than galantamine: compared to galantamine Ki of ref 50; for AChE type of inhibition (in words): according to Hunter–Downs plot; as to AChE Ki: ATCh 0.05–0.50 mM
T1 construct: gift of Dr Florian Nachon (IRBA, Brétigny-sur-Orge, France)
T1 sequence (P22303 32-614): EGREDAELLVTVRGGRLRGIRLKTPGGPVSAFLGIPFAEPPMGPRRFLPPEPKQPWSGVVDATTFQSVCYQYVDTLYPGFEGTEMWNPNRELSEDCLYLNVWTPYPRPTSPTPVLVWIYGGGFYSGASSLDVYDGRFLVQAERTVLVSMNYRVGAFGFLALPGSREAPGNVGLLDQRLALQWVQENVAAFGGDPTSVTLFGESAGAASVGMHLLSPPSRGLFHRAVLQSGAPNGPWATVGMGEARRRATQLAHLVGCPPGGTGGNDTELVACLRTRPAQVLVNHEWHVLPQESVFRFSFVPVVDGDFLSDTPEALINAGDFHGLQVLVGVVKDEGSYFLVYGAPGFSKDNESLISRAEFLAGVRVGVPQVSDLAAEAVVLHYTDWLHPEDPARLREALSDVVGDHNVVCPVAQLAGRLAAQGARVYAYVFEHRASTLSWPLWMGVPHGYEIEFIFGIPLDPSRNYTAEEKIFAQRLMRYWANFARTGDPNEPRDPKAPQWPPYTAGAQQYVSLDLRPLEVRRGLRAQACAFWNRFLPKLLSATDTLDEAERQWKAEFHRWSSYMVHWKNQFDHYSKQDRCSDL
Experimental: All measurements of cholinesterase activity were performed in 0.1 M sodium phosphate buffer (pH 7.4). Acetylthiocholine (ATCh), used as a substrate, and thiol reagent 5,5′-dithiobis (2-nitrobenzoic acid) (DTNB) were purchased from Sigma–Aldrich, St. Louis, MO, USA. ATCh was dissolved in water and DTNB in sodium phosphate buffer. Stock solutions of compounds were prepared in DMSO (Gram-mol, Zagreb, Croatia), and all further dilutions were carried out in water. As the source of AChE and BChE, purified native human BChE and recombinant human AChE, both kindly provided by Dr Florian Nachon (Département de Toxicologie, Armed Forces Biomedical Research Institute (IRBA), Brétigny-sur-Orge, France), were used. Both enzymes were diluted in a phosphate buffer containing 0.1% BSA, while further dilutions were in a phosphate buffer with 0.01% BSA.
Enzyme activity measurements were carried out spectrophotometrically using a slightly modified Ellman method, as previously described. […] At least three inhibitor concentrations were used at each substrate concentration in at least three experiments. To calculate the enzyme inhibitor dissociation constants (Ki), the Hunter–Downs equation and the linear regression analysis were used:Ki,app = (vi∙i)/(v0 − vi) = Ki + Ki/KS s where Ki,app stands for the apparent inhibition constant and KS for the enzyme–substrate dissociation constant.
The final content of DMSO in measurements was up to 0.4%, and inhibitory reactions containing more than 0.1% of DMSO were corrected for control reactions containing a corresponding concentration of DMSO. No side interactions of the tested compounds with ATCh or DTNB were detected. Measurements were performed at 25 °C and wavelength λ = 412 nm on a Tecan Infinite M200Pro (Tecan Austria GmbH, Salzburg, Austria), and for all calculations, the statistical package GraphPadPrism 8 (Graph Pad Inc., San Diego, CA, USA) was used.
The selectivity index (SI) was determined using the following ratio: SI = Ki(AChE)/Ki(BChE).

[2] = target: T2, purified native human BChE (Homo sapiens, UniProt P06276); experiment: biochemical; format: biochemical; conditions: for SI = Ki(AChE)/Ki(BChE): selectivity index
T2 construct: purified native human BChE; tissue gift of Dr Florian Nachon (IRBA, Brétigny-sur-Orge, France)
T2 sequence (P06276 29-602): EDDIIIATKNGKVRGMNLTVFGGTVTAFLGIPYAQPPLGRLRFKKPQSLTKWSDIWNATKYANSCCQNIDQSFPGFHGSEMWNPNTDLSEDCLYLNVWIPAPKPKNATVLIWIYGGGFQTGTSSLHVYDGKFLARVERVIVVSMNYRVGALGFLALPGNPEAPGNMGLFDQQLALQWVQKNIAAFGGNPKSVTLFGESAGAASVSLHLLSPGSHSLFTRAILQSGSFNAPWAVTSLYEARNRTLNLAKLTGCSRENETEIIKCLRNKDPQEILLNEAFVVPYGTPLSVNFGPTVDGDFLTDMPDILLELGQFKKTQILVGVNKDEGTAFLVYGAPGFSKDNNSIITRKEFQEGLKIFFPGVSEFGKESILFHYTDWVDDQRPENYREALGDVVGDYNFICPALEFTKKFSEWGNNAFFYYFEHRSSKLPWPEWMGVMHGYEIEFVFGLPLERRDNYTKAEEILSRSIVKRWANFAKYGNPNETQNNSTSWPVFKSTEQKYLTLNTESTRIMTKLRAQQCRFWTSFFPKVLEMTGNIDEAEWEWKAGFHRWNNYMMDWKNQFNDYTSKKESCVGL

[3] = ORAC assay (peroxyl radical antioxidant activity); conditions: benzoquinone 50 µM
Experimental: For the determination of antioxidant capacity by ORAC method, the commercially available OxiSelect™ Oxygen Radical Antioxidant Capacity (ORAC) Activity Assay kit was used (cat. no. STA-345, Cell Biolabs, Inc., San Diego, CA, USA).
The ability of benzoquinones to prevent excessive oxidation caused by ROS was tested using the commercially available OxiSelect™ Oxygen Radical Antioxidant Capacity (ORAC) Activity Assay kit (cat. no. STA-345, Cell Biolabs, Inc., San Diego, CA, USA), following the manufacturer’s protocol with slight adjustments concerning the antioxidant standard final concentrations. Stock solutions of benzoquinones were prepared in DMSO while 5 mM Trolox (used as an antioxidant standard) was provided by the manufacturer as a solution, and their further dilutions were carried out in 50% v/v acetone. Benzoquinones (50 µM) and Trolox (2.5–50 µM) were incubated with 1x Fluorescein Solution in 96-well black microplates at 37 °C for 30 min. After incubation time, Free Radical Initiator Solution was added. The sample reading was performed at 37 °C with an excitation wavelength of 480 nm and an emission wavelength of 520 nm. […] Net AUC values were compared to a Trolox standard curve and antioxidant capacity was presented as Trolox equivalent (TE) concentrations. All readouts were recorded on a plate reader (SpectraMax iD3, Molecular Devices, LLC, San Jose, CA, USA). Calculations were performed using the statistical package GraphPadPrism 8 (Graph Pad Inc, San Diego, CA, USA).
The ORAC assay was used to evaluate the ability of 1,4-benzoquinone derivatives to prevent oxidative damage caused by generation of ROS. In this assay, the quenching of the fluorescent probe (fluorescein) over time by the peroxyl radicals generated by the Free Radical Initiator Solution was monitored. Since the antioxidant capacity of benzoquinones correlates with the fluorescence decay, the peroxyl radical antioxidant activity of the selected compounds was determined by comparing the antioxidant standard curve of Trolox and was expressed as TE (Trolox equivalents)/µM [58].

[4] = target: T3, human recombinant β-secretase (BACE1) (Homo sapiens, UniProt P56817); experiment: Inhibition of BACE1 (spectrofluorimetric method); format: biochemical; conditions: 50 μM compound; three independent measurements ± SD
T3 construct: purchased Sigma Aldrich, St. Louis, MO, USA S4195
T3 sequence (P56817 46-501): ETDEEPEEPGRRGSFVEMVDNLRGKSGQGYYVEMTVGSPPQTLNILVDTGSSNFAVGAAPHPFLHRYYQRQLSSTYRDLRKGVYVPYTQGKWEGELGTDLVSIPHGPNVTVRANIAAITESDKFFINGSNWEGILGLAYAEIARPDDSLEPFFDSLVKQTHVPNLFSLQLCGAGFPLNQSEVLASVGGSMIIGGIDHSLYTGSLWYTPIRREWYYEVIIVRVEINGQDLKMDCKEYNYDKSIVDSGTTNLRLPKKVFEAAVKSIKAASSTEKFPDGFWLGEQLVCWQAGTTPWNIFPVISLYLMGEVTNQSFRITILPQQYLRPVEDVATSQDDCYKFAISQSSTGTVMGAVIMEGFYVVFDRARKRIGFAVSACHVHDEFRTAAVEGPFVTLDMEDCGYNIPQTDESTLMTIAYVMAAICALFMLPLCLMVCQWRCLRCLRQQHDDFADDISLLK
Experimental: For the determination of BACE1 activity, a human recombinant β-secretase (BACE1) (cat. no. S4195, Sigma Aldrich, St. Louis, MO, USA) as the source of the enzyme and 7-Methoxycoumarin-4-acetyl-[Asn670, Leu671]-Amyloid β/A4 Precursor Protein 770 Fragment 667–676(2,4-dinitrophenyl)Lys-Arg-Arg amide (cat. no. A1472, Sigma Aldrich, St. Louis, MO, USA) as the substrate were used. All measurements were conducted in 50 mM sodium acetate buffer (pH 4.5) with 0.005% Triton X-100. Commercially available β-secretase Inhibitor III (cat. no. 565780, EMD Millipore Corp., Billerica, MA, USA) was used as positive control.
BACE1 activity was determined using a slightly modified spectrofluorimetric method, as described in our previous work. Stock solutions of tested compounds were prepared in DMSO, and further dilutions were carried out in 50 mM sodium acetate buffer (pH 4.5) containing 0.005% Triton X-100. […] To eliminate any potential influence of benzoquinone and/or buffer on the intensity of fluorescence signal, non-enzymatic (buffer, substrate, and benzoquinones) and blank reactions (buffer and substrate only) were also measured and subtracted from inhibition and control reaction, respectively. As a positive control of BACE1 inhibition, commercially available β-secretase Inhibitor III (EMD Millipore Corp., Billerica, MA, USA) was used (5 µM), which inhibited over 90% of BACE1 activity, corresponding to the manufacturer’s data. All fluorescence signal readouts were recorded at room temperature (25 °C) at zero and two hours after incubation at 37 °C, on a plate reader (SpectraMax iD3, Molecular Devices, LLC, San Jose, CA, USA) with excitation at 320 nm and emission at 405 nm.

[5] = FRAP assay (ferric-reducing antioxidant power); conditions: 50 and 100 μM
Excerpt: All chemicals for FRAP antioxidant activity measurements were purchased from Sigma Aldrich (St. Louis, MO, USA), except for FeCl3 and tripyridyltriazine (TPTZ), which were purchased from Kemika, Zagreb, Croatia, and Fluka, Buchs, Switzerland, respectively.
A ferric-reducing antioxidant power (FRAP) assay was used to determine the antioxidant capacity of tested benzoquinones, following a slightly modified protocol by Benzie and Strain [41, 42]. The water-soluble derivative of vitamin E (Trolox) and butylated hydroxytoluene (BHT) were used as standard antioxidants. […] All absorbance readouts were recorded at 593 nm against a blank and corrected for the value of absorbance of corresponding benzoquinone alone. All measurements were performed in three independent experiments. FRAP values were calculated using a standard curve for FeSO4 × 7H2O. All readouts were recorded on a plate reader (SpectraMax iD3, Molecular Devices, LLC, San Jose, CA, USA).

[6] = parameters: method as in doi:10.2298/JSC220304044D; conditions: previous study ref 56; cited from earlier work
[7] = 400 μM compound (maximum concentration used), 0.1 mM ATCh

| Compound | Ki ([1]; read-out: AChE Ki) [µM] | Ki ([2]; read-out: BChE Ki) [µM] | SI = Ki(AChE)/Ki(BChE) [2] | ORAC value, TE (Trolox equivalents) [3] | inhibition at 50 µM [4] [%] | further results |
| --- | --- | --- | --- | --- | --- | --- |
| COc1ccc(SC2=CC(=O)C=C(C(C)(C)C)C2=O)cc1 [Compound 8] | 85 ± 5 | 29 ± 3 | 2.9 | 3.6 ± 0.6 µM | – | – |
| CNC1=CC(=O)C(C(C)(C)C)=CC1=O [Compound 12] | – | 228 ± 56 | – | – | – | AChE inhibition ([1]; any of the tested concentrations): did not inhibit AChE |
| CC(C)(C)C1=CC(=O)C=C(Sc2ccc(O)cc2)C1=O [Compound 7] | 37 ± 4 | 23 ± 2 | 1.6 | ≥50 µM | 16.7 ± 2.8 | – |
| CC(C)(C)C1=CC(=O)C(SCCO)=CC1=O [Compound 3] | 57 ± 4 | 8.8 ± 0.8 | 6.5 | 23.9 ± 1.6 µM | 5.7 | fold higher AChE inhibition potency than meta position counterpart [1]: approximately 1.7 |
| CC(C)(C)C1=CC(=O)C=CC1=O [Compound 1, tert-butyl-1,4-benzoquinone] | – | – | 0.95 | 16.7 ± 0.1 µM | – | Ki [1]: 52 ± 6 µM; Ki [2]: 55 ± 5 µM; FRAP antioxidant activity compared to standard antioxidants Trolox and BHT [5]: approximately three times less potent than BHT; DPPH antioxidant activity relative to ascorbic acid [6]: approximately twice as potent as ascorbic acid |
| CC(C)(C)C1=CC(=O)C(N2CCC[C@H]2C(=O)O)=CC1=O [Compound 14] | 21 ± 1 | 36 ± 2 | 0.58 | 19.7 ± 1.6 µM | 10.1 ± 2 | times less potent as inhibitor of AChE than donepezil [1]: ~1166; times less potent as inhibitor of AChE than galantamine [1]: about 54 |
| CC(C)(C)C1=CC(=O)C=C(Sc2ccc3ccccc3c2)C1=O [Compound 10] | 30 ± 3 | 37 ± 5 | 0.81 | 9.3 ± 0.5 µM | 26.2 | AChE type of inhibition (in words) [1]: mixed-type |
| CNC1=CC(=O)C=C(C(C)(C)C)C1=O [Compound 13] | – | – | – | – | – | AChE inhibitory activity [1, 7]: did not show any inhibitory activity; BChE inhibitory activity [2, 7]: did not show any inhibitory activity |
| CC(C)(C)C1=CC(=O)C=C(SCCc2ccccc2)C1=O [Compound 9] | 24 ± 1 | 25 ± 3 | 0.96 | 5.2 ± 0.0 µM | 27.4 | AChE type of inhibition (in words) [1]: non-competitive; times less potent as inhibitor of AChE than donepezil [1]: ~1166; times less potent as inhibitor of AChE than galantamine [1]: about 54 |
| CC(C)(C)C1=CC(=O)C=C(N[C@@H](Cc2ccccc2)C(=O)O)C1=O [Compound 15] | 59 ± 5 | 34 ± 2 | 1.7 | 43.2 µM and 43.2 ± 1.6 µM | 15 ± 3.8 | – |
| CC(C)(C)C1=CC(=O)C(SC2CCCC2)=CC1=O [Compound 5] | 29 ± 5 | 5.2 ± 0.7 | 5.6 | 11.0 ± 0.3 µM | 11 ± 2 | AChE type of inhibition (in words) [1]: competitive; times less potent as inhibitor of AChE than donepezil [1]: ~1166; times less potent as inhibitor of AChE than galantamine [1]: about 54; fold higher AChE inhibition potency than meta position counterpart [1]: approximately 1.7 |
| CC(C)(C)C1=CC(=O)C=C(SCCO)C1=O [Compound 2] | 80 ± 7 | 33 ± 1 | 2.4 | – | – | AChE type of inhibition (in words) [1]: mixed |
| CC(C)(C)C1=CC(=O)C2=C(SCCS2)C1=O [Compound 11] | – | – | – | – | – | DPPH antioxidant activity relative to ascorbic acid [6]: approximately twice as potent as ascorbic acid |
| CC(C)(C)C1=CC(=O)C=C(SC2CCCC2)C1=O [Compound 4] | 56 ± 8 | 30 ± 6 | 1.9 | – | – | – |
| CC(C)(C)C1=CC(=O)C=C(Sc2ccccc2)C1=O [Compound 6] | 136 ± 13 | 18 ± 4 | 7.6 | – | – | DPPH antioxidant activity relative to ascorbic acid [6]: approximately twice as potent as ascorbic acid |

From publication PMC12384008, “Assessment of Biological Activity of Low Molecular Weight 1,4-Benzoquinone Derivatives” (Biomolecules, 2025)
